In patent US10647665B2, “Biaryl urea derivative or salt thereof and preparation process and use for the same” (Fudan University, priority 2016, dated 2020):

Key:
[1] = target: RORγ receptor (B-RORγ LBD) (Homo sapiens (Human), UniProt P51449); assay: Inhibitory activity on RORγ receptor in vitro by fluorescence resonance energy transfer (FRET); type: biochemical; details: average of at least two independent tests
Experimental: The inhibitory activity of compounds on RORγ receptor was determined by fluorescence resonance energy transfer (FRET) experiments. The inhibitory activity was expressed by half-inhibitory concentration (IC50).
1. Preparation of RORγ Buffer Solution
10 mL of DTT and 100 mL buffer solution were gently mixed together and ready to use.
2. Preparation of Compound Solution
(§1) 3. Preparation of Protein Mixture a. 40 nM B-RORγ LBD solution and 20 nM SA-APC solution were gently mixed together. The reaction mixture was incubated for 15 minutes at room temperature. Then 400 nM Biotin was added to the described above mixture. After gently mixed together, the resulting mixture was incubated for 10 minutes at room temperature. […]
as §1, with “b.” for “3. Preparation of Protein Mixture a.”, “Bioin-SRC1” for “B-RORγ LBD”, “10” for “20”, “SA-eu” for “SA-APC”, “together, and the” for “together. The”, “200” for “400”
d. A mixture of 0.1 μM alternative agonist
N-(2-chloro-6-fluorophenyl)-N-((20-methoxy-[1,10-biphenylyl]-4-substituted)methyl)benzenesulfonamide, 25 μL B-RORγ LBD/SA-APC and Bioin-SRC1/SA-eu mixture solution with test compound were added to one of the well of a 384-well plate, then they were centrifuged for 1 minute at 1000 rpm, and incubated at room temperature for 1 hour. The values were read on the Envision microplate detector and IC50 was calculated.

[2] = test system: Mouse Th17 cell differentiation; assay: Inhibition of mouse Th17 cell differentiation (IL-17 by intracellular staining and flow cytometry); type: cell-based; details: compound at 0.3 μM, mouse spleen CD4+ T cells, 96 hours
Experimental: Experimental method: Mouse spleen CD4^+ T cells were isolated and differentiated into Th17 cells. CD4^+ T cells were cultured in the environment of anti-CD3 (0.25 μg/mL), anti-CD28 (1 μg/mL), anti-IL4 (2 μg/mL), anti-IFN-γ (2 μg/mL), TGF-β (5 ng/mL), and IL6 (20 ng/mL), and then the test compound was added. After 96 hours, the differentiation efficiency of Th17 was analyzed. Before collection of cells, PMA at 50 ng/mL and ionomycin at 500 ng/mL were added for stimulation for 4 hours, and the ratio of IL-17 was detected by intracellular staining and flow cytometry. At the same time, we used Live/Dead Cell Dye (Invitrogen) staining method to analyze the cell survival rate, to judge whether the drug had toxicity to cells, and determine the inhibition rate of the compound at a concentration of 0.3 μM on IL-17 differentiation by Th 17 cells.

Chain of RORγ receptor (B-RORγ LBD) (P51449 269-508): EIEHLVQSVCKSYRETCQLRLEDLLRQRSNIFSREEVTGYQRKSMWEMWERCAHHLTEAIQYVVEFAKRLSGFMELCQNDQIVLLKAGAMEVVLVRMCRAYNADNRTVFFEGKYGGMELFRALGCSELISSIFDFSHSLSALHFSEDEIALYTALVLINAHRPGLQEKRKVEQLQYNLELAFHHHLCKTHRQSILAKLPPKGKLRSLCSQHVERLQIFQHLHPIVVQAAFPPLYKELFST

| Structure (SMILES) | IC50 [1] [nM] | inhibition at 0.3 µM [2] [%] |
| --- | --- | --- |
| CS(=O)(=O)c1ccc(CNC(=O)Nc2cc(Cl)c(-c3ccccc3OC(F)(F)F)c(Cl)c2)cc1 [Example 1-4, 1-(2,6-dichloro-2′-(trifluoromethoxy)-[1,1′-biphenyl]-4-yl)-3-(4-(methylsulfonyl)benzyl)urea] | < 500 | 40 to 70 |
| CCS(=O)(=O)c1ccc(CNC(=O)Nc2cc(Cl)c(-c3ccccc3OC(F)(F)F)c(Cl)c2)nc1 [Example 1-11, 1-(2,6-dichloro-2′-(trifluoromethoxy)-[1,1′-biphenyl]-4-yl)-3-((5-(ethylsulfonyl)pyridine-2-yl)methyl)urea] | < 500 |  |
| CNS(=O)(=O)c1ccc(CNC(=O)Nc2cc(Cl)c(-c3ccccc3OC(F)(F)F)c(Cl)c2)nc1 [Example 1-13, 6-((3-(2,6-dichloro-2′-(trifluoromethoxy)-[1,1′-biphenyl]-4-yl)ureido)methyl)-N-methylpyridine-3-sulfonamide] | < 500 |  |
| CC(=O)NS(=O)(=O)c1ccc(CNC(=O)Nc2cc(Cl)c(-c3ccccc3OC(F)(F)F)c(Cl)c2)cc1 [Example 1-7, N-((4-((3-(2,6-dichloro-2′-(trifluoromethoxy)-[1,1′-biphen-1,1′-biphenyl]-4-yl)ureido)methyl)phenyl)sulfonyl)acetamide] | < 500 | 0 to 40 |
| O=C(NCc1ccc(C(=O)O)cc1)Nc1cc(Cl)c(-c2ccccc2OC(F)(F)F)c(Cl)c1 [Example 1-14, 4-((3-(2,6-dichloro-2′-(trifluoromethoxy)-[1,1′-biphenyl]-4-yl)ureido)methyl)benzoic acid] | 500 to 5000 | 0 to 40 |
| O=C(O)Cc1ccc(CNC(=O)Nc2cc(F)c(-c3ccccc3OC(F)(F)F)c(F)c2)cc1 [Example 1-19, 2-(4-((3-(2,6-difluoro-2′-(trifluoromethoxy)-[1,1′-biphenyl]-4-yl)ureido)methyl)phenyl)acetic acid] | 500 to 5000 | 0 to 40 |
| CCS(=O)(=O)c1ccc(CNC(=O)Nc2ccc(-c3ccccc3OC(F)(F)F)c(Cl)c2)cc1 [Example 1-3, 1-(2-chloro-2′-(trifluoromethoxy)-[1,1′-biphenyl]-4-yl)-3-(4-(ethylsulfonyl)benzyl)urea] | 500 to 5000 | 40 to 70 |
| CS(=O)(=O)c1ccc(CNC(=O)Nc2cc(Cl)c(-c3ccccc3OC(F)(F)F)c(Cl)c2)nc1 [Example 1-12, 1-(2,6-dichloro-2′-(trifluoromethoxy)-[1,1′-biphenyl]-4-yl)-3-((5-(methylsulfonyl)pyridine-2-yl)methyl)urea] | < 500 |  |
| O=C(O)Cc1ccc(CNC(=O)Nc2ccc(-c3ccccc3OC(F)(F)F)c(Cl)c2)cc1 [Example 1-18, 2-(4-((3-(2-chloro-2′-(trifluoromethoxv)-[1,1′-biphenyl]-4-yl)ureido)methyl)phenyl)acetic acid] | 500 to 5000 | 0 to 40 |
| CC(C(=O)O)c1ccc(CNC(=O)Nc2cc(Cl)c(-c3ccccc3OC(F)(F)F)c(Cl)c2)nc1 (centres unmarked) [Example 1-30, 2-(6-((3-(2,6-dichloro-2′-(trifluoromethoxy)-[1,1′-biphenyl]-4-yl)ureido)methyl)pyridin-3-yl)propanoic acid] | 500 to 5000 |  |
| Cc1cc(CC(=O)O)ccc1CNC(=O)Nc1cc(Cl)c(-c2ccccc2OC(F)(F)F)c(Cl)c1 [Example 1-34, 3-(4-((3-(2,6-dichloro-2′-(trifluoromethoxy)-[1,1′-biphenyl]-4-yl)ureido)methyl)-3-methylphenyl)acetic acid] | < 500 |  |
| Cn1cc(-c2cccc(OC(F)(F)F)c2-c2ccc(NC(=O)NCc3ccc(CC(=O)O)cc3)cc2)cn1 [Example 1-22b, 2-(4-((3-(2′-(1-methyl-1H-pyrazol-4-yl)-6′-(trifluoromethoxy)-[1,1′-biphenyl]-4-yl)ureido)methyl)phenyl)acetic acid] | 500 to 5000 | 0 to 40 |
| NS(=O)(=O)c1ccc(CNC(=O)Nc2cc(Cl)c(-c3ccccc3OC(F)(F)F)c(Cl)c2)cc1 [Example 1-6, 4-((3-(2,6-dichloro-2′-(trifluoromethoxy)-[1,1′-biphenyl]-4-yl)ureido)methyl)benzenesulfonamide] | < 500 | 40 to 70 |
| CCS(=O)(=O)c1ccc(CNC(=O)Nc2cc(Cl)c(-c3ccccc3OC(F)(F)F)c(Cl)c2)cc1 [Example I-1, 1-(2,6-dichloro-2′-(trifluoromethoxy)-[1,1′-biphenyl]-4-yl)-3-(4-(ethylsulfonyl)benzyl)urea] |  | 70 to 100 |
| Cn1cc(-c2cc(NC(=O)NCc3ccc(CC(=O)O)cc3)ccc2-c2ccccc2OC(F)(F)F)cn1 [Example 1-22a, 2-(4-((3-(2-(1-methyl-1H-pyrazol-4-yl)-2′-(trifluoromethoxy)-[1,1′-biphenyl]-4-yl)ureido)methyl)phenyl)acetic acid] | 500 to 5000 | 0 to 40 |
| O=C(O)Cc1ccc(CNC(=O)Nc2cc(Cl)c(-c3ccccc3OC(F)F)c(Cl)c2)cc1 [Example 1-20, 2-(4-((3-(2,6-dichloro-2′-(difluoromethoxy)-[1,1′-biphenyl]-4-yl)ureido)methyl)phenyl)acetic acid] | < 500 | 0 to 40 |
| O=C(O)COc1ccc(CNC(=O)Nc2cc(Cl)c(-c3ccccc3OC(F)(F)F)c(Cl)c2)cc1 [Example 1-26, 2-(4-((3-(2,6-dichloro-2′-(trifluoromethoxy)-[1,1′-biphenyl]-4-yl)ureido)methyl)phenoxy)acetic acid] |  | 0 to 40 |
| O=C(NCc1ccc(C(F)C(=O)O)cc1)Nc1cc(Cl)c(-c2ccccc2OC(F)(F)F)c(Cl)c1 (centres unmarked) [Example 1-38, 2-(4-((3-(2,6-dichloro-2′-(trifluoromethoxy)-[1,1′-biphenyl]-4-yl)ureido)methyl)phenyl)-2-fluoroacetic acid] | < 500 |  |
| N#Cc1cc(NC(=O)NCc2ccc(CC(=O)O)cc2)cc(Cl)c1-c1ccccc1OC(F)(F)F [Example 1-16, 2-(4-((3-(2-chloro-6-cyano-2′-(trifluoromethoxy)-[1,1′-biphenyl]-4-yl)ureido)methyl)phenyl)acetic acid] | < 500 | 0 to 40 |
| CC(C(=O)O)c1ccc(CNC(=O)Nc2cc(Cl)c(-c3ccccc3OC(F)(F)F)c(Cl)c2)cc1 (centres unmarked) [Example 1-24, 2-(4-((3-(2,6-dichloro-2′-(trifluoromethoxy)-[1,1′-biphenyl]-4-yl)ureido)methyl)phenyl)propanoic acid] | 500 to 5000 |  |
| CCS(=N)(=O)c1ccc(CNC(=O)Nc2cc(Cl)c(-c3ccccc3OC(F)(F)F)c(Cl)c2)cc1 (centres unmarked) [Example 1-9, 1-(2,6-dichloro-2′-(trifluoromethoxv)-[1,1′-biphenyl]-4-yl)-3-(4-(ethylsulfonimidoyl)benzyl)urea] | < 500 |  |
| CN(C(=O)NCc1ccc(CC(=O)O)cc1)c1cc(Cl)c(-c2ccccc2OC(F)(F)F)c(Cl)c1 [Example 1-27, 2-(4-((3-(2,6-dichloro-2′-(trifluoromethoxy)-[1,1′-biphenyl]-4-yl)-3-methylureido)methyl)phenyl)acetic acid] | 500 to 5000 |  |
| Cc1cc(CNC(=O)Nc2cc(Cl)c(-c3ccccc3OC(F)(F)F)c(Cl)c2)ccc1CC(=O)O [Example 1-31, 3-(4-((3-(2,6-dichloro-2′-(trifluoromethoxy)-[1,1′-biphenyl]-4-yl)ureido)methyl)-2-methylphenyl)acetic acid] | 500 to 5000 |  |
| O=C(O)Cc1ccc(CNC(=O)Nc2cc(Cl)c(-c3ccccc3OC(F)(F)F)c(Cl)c2)cc1 [Example 1-15, 2-(4-((3-(2,6-dichloro-2′-(trifluoromethoxy)-[1,1′-biphenyl]-4-yl)ureido)methyl)phenyl)acetic acid] |  | 70 to 100 |
| O=C(NCc1ccc(C(O)C(=O)O)cc1)Nc1cc(Cl)c(-c2ccccc2OC(F)(F)F)c(Cl)c1 (centres unmarked) [Example 1-37, 2-(4-((3-(2,6-dichloro-2′-(trifluoromethoxy)-[1,1′-biphenyl]-4-yl)ureido)methyl)phenyl)-2-hydroxyacetic acid] | < 500 |  |
| CN(Cc1ccc(CC(=O)O)cc1)C(=O)Nc1cc(Cl)c(-c2ccccc2OC(F)(F)F)c(Cl)c1 [Example 1-28, 2-(4-((3-(2,6-dichloro-2′-(trifluoromethoxy)-[1,1′-biphenyl]-4-yl)-1-methylureido)methyl)phenyl)acetic acid] | 500 to 5000 |  |
| O=C(O)CCc1ccc(CNC(=O)Nc2cc(Cl)c(-c3ccccc3OC(F)(F)F)c(Cl)c2)cc1 [Example 1-36, 3-(4-((3-(2,6-dichloro-2′-(trifluoromethoxy)-[1,1′-biphenyl]-4-yl)ureido)methyl)phenyl)propanoic acid] | 500 to 5000 |  |
